{
  "source": "paper PMC11944986",
  "about": "“Parenteral Nanoemulsion for Optimized Delivery of GL-II-73 to the Brain—Comparative In Vitro Blood–Brain Barrier and In Vivo Neuropharmacokinetic Evaluation” (Pharmaceutics, 2025)",
  "key": {"[1]": {"experiment": "Solubility of GL-II-73 in various media, shake flask method", "assay_type": "physicochemical", "settings": "thermodynamic from solid", "description": "The solubility of GL-II-73 was investigated in various media using the shake flask method. In brief, GL-II-73 was added in excess and mixed overnight on the vortex, followed by centrifugation to remove any excess of undissolved drug. The supernatants were then diluted in methanol and GL-II-73 content was determined by the LC/MS-MS method.\nA liquid chromatographic system, the Accela 1000 (Thermo Fisher Scientific, San Jose, CA, USA), which includes a quaternary pump and an autosampler, was used for chromatographic analyses. All runs were performed with an XTERRA® MS C18 column (150 mm × 2.1 mm, 3.5 µm; Waters, Dublin, Ireland) maintained at 25 °C. Samples were stored in the autosampler temperature-controlled compartment at 8 °C. Isocratic elution was performed with a mixture of acetonitrile and 0.1% aqueous formic acid (60:40, v/v) at a flow rate of 300 µL/min. The total analysis time was 4.5 min. Mass spectrometric analyses were performed using a TSQ Quantum Access MAX (Thermo Fisher Scientific, Waltham, MA, USA) triple-quadrupole spectrometer equipped with a heated electrospray ionization (HESI) source. Operating conditions of the MS were optimized as follows: the spray voltage was set to 4000 V, with a skimmer offset of 0 V; the evaporator and capillary temperatures were set to 350 °C and 300 °C, respectively; nitrogen was used as both the nebulizer and auxiliary gas, with flow rates of 50 and 10 arbitrary units, respectively; and the collision gas pressure in q2 was maintained at 1.4 mTorr of argon. Data acquisition was performed with Selected Reaction Monitoring (SRM) in positive scan mode. The [M + H]^+ transitions m/z of SRM were 387.2 → 342.2 (CE 21 V), 373.1 → 314.0 (CE 29 V), and 347.0 → 302.0 (CE 28 V) for GL-II-73, MP-III-022, and SHI-I-048A (as internal standard), respectively. The Thermo Xcalibur 2.1 software was used for data acquisition."}, "[2]": {"test_system": "in vitro model of the blood–brain barrier based on human induced pluripotent stem cell-derived microvascular endothelial cells, astrocytes, and pericytes", "experiment": "In vitro BBB permeability test (iCell Blood-Brain Barrier Kit, tricellular model)", "assay_type": "in vitro ADME", "settings": "Pe of nanoemulsion vs solution", "quoted_text": "The iCell® Blood-Brain Barrier Kit (FUJIFILM Cellular Dynamics, Inc., Madison, WI, USA) contained the following: iCell Astrocytes, iCell BMEC (Brain Microvascular Enothelial Cells), iCell Pericytes, iCell Astrocytes & iCell Pericytes Medium, iCell BMEC Maintenance Medium, and iCell Plating Supplement 500×. […]\nThe iCell® Blood-Brain Barrier Kit (FUJIFILM Cellular Dynamics, Madison, WI, USA) contained astrocytes, pericytes, and brain microvascular endothelial cells. […] For comparison, the contribution of the carrier itself was evaluated using a GL-II-73 solution in ultrapure water.\nThe transendothelial electrical resistance (TEER) parameter was used to verify the integrity of the barrier. […] The measured TEER values were corrected with TEER values from wells with empty filters and the medium. The final TEER values (Ω × cm^2) were calculated by adjusting the corrected TEER values to the filter surface. […] For this purpose, 100 µL was taken from the basolateral side (containing 1 mL iCell Maintenance Medium) to be analyzed by LC/MS-MS. […]\nThe Pe parameter (permeability coefficient; cm/min) was calculated as described earlier [19, 20] and used to evaluate the rate and the effectiveness of GL-II-73 transport through the BBB. […]\nThe Pe value was determined by dividing the Pse values by the surface area of the membrane of the insert (cm^2)."}, "[3]": {"experiment": "In vivo neuropharmacokinetic study, plasma and brain, intraperitoneal administration", "design": "species or system Sprague Dawley rats", "settings": "rat; for availability in the brain (AUC0–36) higher after nanoemulsion compared to the solution: intraperitoneal administration; for AUC 0-36: brain", "protocol": "The neuropharmacokinetic study was performed after intraperitoneal administration of the optimized nanoemulsion (NE4) or a 2 mg/mL GL-II-73 solution (solvent consisting of 14% (w/v) propylene glycol and 1% (w/v) polysorbate 80 in ultrapure water). Female Sprague Dawley rats, approximately two months old and weighing 160–200 g, were housed four per cage. The animal room was kept at a temperature of 22 ± 1 °C and a relative humidity of 40–70%. The alternation of light and darkness took place in a 12 h rhythm (light at 6:00 a.m.) with an illumination of 120 lx.\nThe test animals were divided into two groups of 27 rats each (3 animals per time point). One group received the GL-II-73 solution, the other group the GL-II-73 nanoemulsion, each at a dose of 10 mg/kg. At predefined intervals (5 min, 15 min, 30 min, 1 h, 2 h, 4 h, 8 h, 16 h, and 36 h), the animals were anesthetized with ketamine hydrochloride 90 mg/kg (Ketamidor, Richter Pharma AG, Vienna, Austria) and blood and brain samples were taken. Blood was collected by cardiac puncture with heparinized syringes and centrifuged at 1000× g for 10 min (MiniSpin® plus centrifuge, Eppendorf, Hamburg, Germany) to separate plasma. The isolated brains were weighed and homogenized in 1 mL methanol using an ultrasonic probe. The homogenized brain samples were subsequently centrifuged at 3400× g for 20 min to collect the supernatants. Plasma and the supernatants of the brain homogenates were further purified by solid phase extraction using Oasis HLB cartridges (Waters Corporation, Milford, MA, USA). The cartridges were preconditioned with methanol and then with water prior to application of the sample and internal standard. […] The concentration of GL-II-73 and its metabolite MP-III-022 was quantified in the eluates by liquid chromatography–tandem mass spectrometry (LC-MS/MS)."}},
  "note": "Entries after “also recorded” stand apart in the source; their conditions may differ.",
  "data": [
    {"molecule": "C#Cc1ccc2c(c1)C(c1ccccc1F)=N[C@H](C)c1c(C(=O)N(C)C)ncn1-2", "note": "[GL-II-73]", "values": [
      {"measurement": "solubility", "setting": "[1]; MCT, oil or lipid", "value": "4.49 ± 0.148", "unit": "mg/mL"},
      {"measurement": "solubility", "setting": "[1]; aqueous buffer, Phosphate buffer (pH 7.4)", "value": "0.951 ± 0.0414", "unit": "mg/mL"},
      {"measurement": "solubility", "setting": "[1]; benzyl alcohol, organic solvent or mixture", "value": "> 534", "unit": "mg/mL"},
      {"measurement": "solubility", "setting": "[1]; castor oil, oil or lipid", "value": "2.82 ± 0.184", "unit": "mg/mL"},
      {"measurement": "solubility", "setting": "[1]; fish oil, oil or lipid", "value": "2.4 ± 0.331", "unit": "mg/mL"},
      {"measurement": "solubility", "setting": "[1]; isopropanol, organic solvent or mixture", "value": 131, "unit": "mg/mL"},
      {"measurement": "solubility", "setting": "[1]; methanol, organic solvent or mixture", "value": "> 1470", "unit": "mg/mL"},
      {"measurement": "solubility", "setting": "[1]; simulated gastric fluid, 0.1 M HCl (pH 1.2)", "value": "5.37 ± 0.195", "unit": "mg/mL"},
      {"measurement": "solubility", "setting": "[1]; soybean oil, oil or lipid", "value": "3.06 ± 0.137", "unit": "mg/mL"},
      {"measurement": "solubility", "setting": "[1]; Water (pH 5.2)", "value": "1 ± 0.0399", "unit": "mg/mL"},
      {"measurement": "Permeability of GL-II-73 through the BBB, nanoemulsion relative to solution", "setting": "[2]", "value": "twice as high; also recorded: more than twofold higher"},
      {"measurement": "availability in the brain (AUC0–36) higher after nanoemulsion compared to the solution", "setting": "[3]", "value": 24, "unit": "%"},
      {"measurement": "sum of brain AUC0-36 values for the parent molecule and its metabolite, nanoformulation compared to the solution", "setting": "[3]; systemic administration", "value": "one-third higher"}
    ]},
    {"molecule": "C#Cc1ccc2c(c1)C(c1ccccc1F)=N[C@H](C)c1c(C(=O)NC)ncn1-2", "note": "[MP-III-022]", "values": [
      {"measurement": "AUC 0-36", "setting": "[3]; metabolite MP-III-022 after 10 mg/kg GL-II-73 nanoemulsion NE4 i.p.", "value": "167.36 ± 70.56", "unit": "ng·h/g"},
      {"measurement": "AUC 0-36", "setting": "[3]; metabolite MP-III-022 after 10 mg/kg GL-II-73 solution i.p.", "value": "103.75 ± 2.05", "unit": "ng·h/g"},
      {"measurement": "availability in the brain (AUC0–36) higher after nanoemulsion compared to the solution", "setting": "[3]", "value": 61, "unit": "%"}
    ]}
  ]
}
